This is an account of results in US12150937B2, “NLRP3 modulators” (INNATE TUMOR IMMUNITY, INC., priority 2019, dated 2024).

For this test, the target named is T1, NLRP3 (Homo sapiens, UniProt Q96P20).
T1 construct: Measurement of IL-1β Production in PMA-Differentiated THP-1 Cells; host or cells: THP-1 cells, PMA-differentiated
T1 sequence (Q96P20 whole entry): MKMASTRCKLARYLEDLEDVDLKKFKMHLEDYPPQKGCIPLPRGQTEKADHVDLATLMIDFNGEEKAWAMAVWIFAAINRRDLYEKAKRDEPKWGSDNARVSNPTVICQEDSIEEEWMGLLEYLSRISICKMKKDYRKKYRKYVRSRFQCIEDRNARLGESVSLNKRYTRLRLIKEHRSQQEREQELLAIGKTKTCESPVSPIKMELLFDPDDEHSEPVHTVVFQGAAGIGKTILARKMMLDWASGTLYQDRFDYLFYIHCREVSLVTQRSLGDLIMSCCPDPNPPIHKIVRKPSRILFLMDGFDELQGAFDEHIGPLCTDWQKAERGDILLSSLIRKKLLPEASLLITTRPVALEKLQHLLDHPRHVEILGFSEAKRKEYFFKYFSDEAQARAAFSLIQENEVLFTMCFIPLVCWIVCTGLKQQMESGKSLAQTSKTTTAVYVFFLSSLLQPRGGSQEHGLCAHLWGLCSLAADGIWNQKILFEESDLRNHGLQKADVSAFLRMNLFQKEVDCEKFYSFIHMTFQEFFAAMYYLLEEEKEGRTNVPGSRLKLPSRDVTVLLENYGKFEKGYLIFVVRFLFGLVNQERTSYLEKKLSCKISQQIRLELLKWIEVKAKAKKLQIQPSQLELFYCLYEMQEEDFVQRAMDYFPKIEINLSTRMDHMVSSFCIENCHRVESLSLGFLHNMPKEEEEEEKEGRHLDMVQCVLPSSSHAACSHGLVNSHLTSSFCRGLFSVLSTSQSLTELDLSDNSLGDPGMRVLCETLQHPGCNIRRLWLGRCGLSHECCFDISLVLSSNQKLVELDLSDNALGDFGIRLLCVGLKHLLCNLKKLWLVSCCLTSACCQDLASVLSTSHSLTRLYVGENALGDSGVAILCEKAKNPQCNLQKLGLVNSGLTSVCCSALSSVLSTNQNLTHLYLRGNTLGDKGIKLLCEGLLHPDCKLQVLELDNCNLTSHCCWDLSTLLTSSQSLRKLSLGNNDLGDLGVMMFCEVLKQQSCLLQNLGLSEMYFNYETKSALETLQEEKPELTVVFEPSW
The test is described as follows: Measurement of IL-1β production in PMA-differentiated THP-1 cells (NLRP3 hIL1β). The format is cell-based. On the procedure:
Measurement of IL-1β Production in PMA-Differentiated THP-1 Cells
THP-1 cells were purchased from the American Type Culture Collection and sub-cultured according to instructions from the supplier. Prior to experiments, cells were cultured in RPMI 1640 containing 10% heat inactivated FBS, penicillin (100 units/ml) and streptomycin (100 μg/ml), and maintained in log phase prior to experimental setup. Prior to the experiment THP-1 were treated with PMA (Phorbol 12-myristate 13-acetate) (10 μg/ml) for 24 hours. The day of the experiment the media was removed and attaching cells were treated with trypsin for 2 minutes, cells were then collected, washed with PBS (phosphate buffer saline), spin down, resuspended in 2% heat inactivated FBS with RPMI at a concentration of 1×10^6 cells/ml, and 100 μl was plated in a 96 well plate. Compounds were dissolved in dimethyl sulfoxide (DMSO) and added to the culture medium to achieve desired concentration (e.g. 100, 30, 10, 3, 1, 0.3 or 0.1 μM). Cells were incubated with compounds for 4 hours. Cell free supernatant was collected and the production of IL-1β was evaluated by ELISA. A vehicle only control was run concurrently with each experiment. Final DMSO concentration was 1%.
Measurement of IL-1β Production in PMA-Differentiated THP-1 Cells (Alternative Procedure)
THP-1 cells were purchased from the American Type Culture Collection and sub-cultured according to instructions from the supplier. Prior to experiments, cells were cultured in RPMI 1640 containing 10% heat inactivated FBS, penicillin (100 units/ml), streptomycin (100 μg/ml), HEPES (10 mM) and sodium pyruvate (1 mM) and maintained in log phase prior to experimental setup. Prior to the experiment, THP-1 cells were treated with PMA (Phorbol 12-myristate 13-acetate) (20 μg/ml) overnight. The day of the experiment, the media was removed and attached cells were treated with trypsin for 2 minutes, cells were then collected, washed with PBS (phosphate buffer saline), pelleted by centrifugation and resuspended in 2% heat inactivated FBS with RPMI at a concentration of 50,000 cells/well in a 384 well plate. Cell free supernatant was collected and the production of IL-1β was evaluated by ELISA. Compounds were dissolved in dimethyl sulfoxide (DMSO) and added to the culture medium to achieve desired concentration (e.g. 100, 30, 10, 3, 1, 0.3 or 0.1 μM). Cells were incubated with compounds for 2 hours. A vehicle only control was run concurrently with each experiment. Final DMSO concentration was 1%.
Measurement of IL-1β Production—hTRF Protocol (Second Alternative Procedure)
Serial dilutions of compounds in DMSO were added to low volume 384 well plates at 100 nl/well using an ECHO 550 acoustic dispenser (Labcyte) to achieve final starting concentration of 10 μM in assay.
THP-1 cells in RPMI (Gibco, 11875) media with 10% FBS at a density of 1×10^6 cell/ml in a T175 flask were treated with a final concentration of phorbol 12-myristate 13-acetate (PMA) (Sigma, P1585) of 50 ng/ml overnight at 37° C. at 5% CO2 for differentiation. Cells were harvested the next day after rinsing well wth dPBS using 0.5% trypsin. A cell solution was prepared of 1×10^6 cells/ml for 50,000 cells in 50 μl/well in RPMI media with 2% FBS. Cells were plated using a multichannel pipette onto the compound dilutions in Greiner, 384 well, black clear bottom tissue culture treated plates (781090). The plates were incubated in 37° C. incubator at 5% CO2 for 2 hours.
After the 2 hour incubation, the cell plates were spun in the centrifuge for 5 minutes at 1200 rpm. Using the Felix (CyBio), 8 μl of the supernatant was transferred to 384 well, low volume, white proxy plates. (Perkin Elmer, 6008230). A human IL1beta hTRF kit was used to analyze the supernatant (CISBIO, 62HIL1BPEG). The kit instructions were followed for preparing the IL1Beta standard curve and then the antibodies from the kit were diluted 1:40 rather than 1:20 as kit instructed. […]
The molecule `Nc1cc(NCCCO)c2ncc(-c3ccn[nH]3)cc2n1` [Example 16] registered a concentration for a half-maximal effect (EC50) of 350 nM.

Take `Nc1cc(NCCCO)c2cnc(-c3cc[nH]n3)cc2n1` [Example 11]: the EC50 worked out at 1700 nM.

Molecule `Nc1cc(NCc2cc[nH]n2)c2ncc(-c3ccn[nH]3)cc2n1` [Example 15] returned an EC50 of 280 nM. Then `Nc1cc(N[C@H]2CCOC2)c2cnc(-c3cc[nH]n3)cc2n1` [Example 12], with 1700 nM; and `Nc1cc(NCCO)c2ncc(-c3ccn[nH]3)cc2n1` [Example 3, 2-((2-amino-7-(1H-pyrazol-3-yl)-1,5-naphthyridin-4-yl)amino)ethan-1-ol], with 310 nM; and `Nc1cc(N[C@H]2CC[C@H](O)C2)c2ccc(-c3cc[nH]n3)nc2n1` [Example 8], with 1600 nM. `Nc1nc(N[C@H]2CC[C@H](O)C2)c2ccc(-c3ccn[nH]3)nc2n1` [Example 7, (1S,3 S)-3-((2-amino-7-(1H-pyrazol-5-yl)pyrido[2,3-d]pyrimidin-4-yl)amino)cyclopentan-1-ol] displayed a 50% effective concentration (EC50) of 5700 nM.

Take `Nc1cc(NCc2cccnn2)c2ccc(-c3cc[nH]n3)nc2n1` [Example 9]: the EC50 came out at 2000 nM. With `Nc1cc(-c2cc[nH]n2)c2ncc(-c3ccn[nH]3)cc2n1` [Example 5, 4-(1H-pyrazol-3-yl)-7-(1H-pyrazol-5-yl)-1,5-naphthyridin-2-amine] the figure was 860 nM; with `Nc1cc(N[C@H]2CCOC2)c2ccc(-c3cc[nH]n3)nc2n1` [Example 10], 930 nM; with `Nc1cc(N[C@H]2CC[C@H](O)C2)c2ncc(-c3ccn[nH]3)cc2n1` [Example 4, (1S,3S)-3-((2-amino-7-(1H-pyrazol-5-yl)-1,5-naphthyridin-4-yl)amino)cyclopentan-1-ol], 3500 nM. In turn, `Nc1nc(NCCc2ccccn2)c2ncc(-c3cc[nH]n3)cc2n1` [Example 19] came in with a concentration for a half-maximal effect (EC50) of 690 nM. In the case of `C[C@@H](O)CNc1cc(N)nc2cc(-c3ccn[nH]3)cnc12` [Example 25], the EC50 amounted to 80 nM.

Turning to `C[C@H](O)CNc1cc(N)nc2cc(-c3ccn[nH]3)cnc12` [Example 24], the EC50 was determined as 310 nM. `Nc1cc(N[C@H]2CC[C@H](O)C2)c2cnc(-c3ccn[nH]3)cc2n1` [Example 2, (1S,3S)-3-((2-amino-7-(1H-pyrazol-5-yl)-1,6-naphthyridin-4-yl)amino)cyclopentan-1-ol] registered an EC50 of 17000 nM. With `Nc1cc(NCc2cccnn2)c2ncc(-c3ccn[nH]3)cc2n1` [Example 29] the figure was 280 nM.

In the case of `Nc1cc(NCCCO)c2ccc(-c3cc[nH]n3)nc2n1` [Example 1, 3-((2-amino-7-(1H-pyrazol-3-yl)-1,8-naphthyridin-4-yl)amino)propan-1-ol], the response was half-maximal at 1000 nM (EC50). For `Nc1nc(NCCCO)c2ncc(-c3cc[nH]n3)cc2n1` [Example 17], the concentration for a half-maximal effect (EC50) is 830 nM. For `Nc1cc(N[C@@H]2CCOC2)c2ncc(-c3ccn[nH]3)cc2n1` [Example 14], the EC50 came to 2600 nM. The molecule `Nc1nc(NCc2cncnc2)c2ncc(-c3cc[nH]n3)cc2n1` [Example 18] registered an EC50 of 2000 nM. Take `Nc1cc(N[C@H]2C[C@H](O)C2)c2ncc(-c3ccn[nH]3)cc2n1` [Example 28]: the midpoint of the response, the EC50, lay at 140 nM. In turn, `Nc1nc(N2CCCOCC2)c2ncc(-c3cc[nH]n3)cc2n1` [Example 21] registered an EC50 of 700 nM. The molecule `Nc1nc(NCCO)c2ncc(-c3cc[nH]n3)cc2n1` [Example 20] registered an EC50 of 1900 nM.

`Nc1cc(N[C@@H]2CC[C@@H](O)C2)c2ncc(-c3ccn[nH]3)cc2n1` [Example 26] registered an EC50 of 590 nM. Molecule `Nc1nc(N[C@@H]2CCOC2)c2ncc(-c3cc[nH]n3)cc2n1` [Example 6, (R)-7-(1H-pyrazol-3-yl)-N4-(tetrahydrofuran-3-yl)pyrido[3,2-d]pyrimidine-2,4-diamine] displayed a concentration giving a half-maximal response (EC50) of 3600 nM.
